Experimental data published in paper PMC8533176, “1,5-Benzodiazepin-2(3H)-ones: In Vitro Evaluation as Antiparkinsonian Agents” (Antioxidants, 2021).

Key:
[1] = Chemical reactivity with H2O2; assay type: physicochemical; conditions: H2O2 500 µM, 37 °C, 4 h; pH ≥ 7.4
Method: In our case, before running the protection experiments under oxidative stress conditions, we carried out experiments to assess the potential reactivity of compounds 9, 11, 13, and 18 at four different concentrations (5, 10, 20, and 40 µM) with H2O2 500 µM at 37 °C for 4 h in DMEM:F12 (without phenol red, FBS, and cells). Curcumin was used as a control compound.

[2] = tested on: SH-SY5Y cells; assay: LDH release under H2O2; assay type: cell-based, human; conditions: H2O2 250 µM 24 h; compounds 24 h before; Figure 9
[3] = tested on: SH-SY5Y cells; assay: Cytotoxicity, MTT assay, SH-SY5Y; assay type: cell-based; conditions: Homo sapiens, MTT, cytotoxicity, read-out: SH-SY5Y IC50
Method: (§1) All compounds tested were dissolved and eventually further diluted in dimethylsulfoxide (DMSO). After overnight incubation, the cells were treated with different compound concentrations (5, 10, 20, 50, 100, 150, 200 µM) in a final volume of 200 µL with four replicates each. […] Cell proliferation or viability was measured using the 3-(4,5-dimethylthiazol-2-yl)-2,5-diphenyl tetrazolium bromide (MTT) assay. The MTT assay was optimized taking into account the number of cells plated per well, to work in the linear part of the cell density vs. MTT absorbance calibration curve, which allows achieving a maximum absorbance in the range of 0.8–1.0 in each well at the end of the experiment. In addition to that, the number of cells seeded for each experiment was optimized in agreement with the time scale of the experiment.
(§2) After cell treatment, 20 µL of MTT (5 mg/mL) was added to each well, and the plate was incubated at 37 °C in the dark for 2 h. Supernatants were removed, and the formazan crystals were solubilized in DMSO (200 µL/well), under 10 min shaking at room temperature. The reduction of MTT was quantified by absorbance at 570 nm in a Varioskan microplate reader (Thermo Fisher Scientific, Vantaa, Finland). Effects of the test compounds on cell viability were calculated using cells treated with a vehicle as a control. For IC50 and LD50 calculations, the data were subjected to linear regression analysis, and the regression lines were plotted for the best fit. The IC50 (inhibition of cell viability) concentrations were calculated using the respective dose–response curves.

[4] = tested on: HepG2 cells; assay: Cytotoxicity, MTT assay, HepG2; assay type: cell-based; conditions: Homo sapiens, HepG2; MTT, cytotoxicity; read-out: HepG2 IC50
Method: as §1, §2

[5] = tested on: SH-SY5Y cells; assay: Mitochondrial superoxide levels (MitoSOX); assay type: cell-based, human; conditions: H2O2 250 µM; compounds 24 h before
Method: Mitochondrial superoxide levels were measured with MitoSOX red (3,8-phenanthridinediamine, 5-(60-triphenylphosphoniumhexyl)-5,6-dihydro-6-phenyl) from Molecular Probes (Thermo Fisher Scientific, 29851Willow Creek Road, Eugene, OR, USA). After SH-SY5Y cell treatment in 96-well culture black clear bottom plates, the medium was removed and cells were washed with PBS and afterward, MitoSOX red (final concentration of 5 µM) in 200 µL of PBS was added and incubated for 20 min at 37 °C. After incubation, the cells were washed with warm PBS buffer, and fluorescence was measured at 510 nm excitation/640 nm emission wavelengths in a Varioskan microplate reader (Thermo Fisher Scientific, Vantaa, Finland).

[6] = tested on: SH-SY5Y cells; assay: Neuroprotection in the MPP+ neurotoxicity-induced model, MTT; assay type: cell-based, human; conditions: MPP+ 700 µM 48 h; compounds 24 h before
[7] = tested on: Caspase-3 activity in SH-SY5Y cells; assay: Caspase-3 activity; assay type: cell-based, human; conditions: H2O2 500 µM 4 h; compound 24 h before
Method: Caspase-3 activity was measured using the Abcam fluorimetric kit (ab39383) according to the manufacturer’s instructions. Cells are washed with ice-cold PBS and lysed with lysis buffer. After compound and stressor treatments, SH-SY5Y cells were scraped off from p6 plates and collected in a 1.5 mL Eppendorf vial. The cell suspension was then centrifuged at 9000× g for 10 min at 4 °C. The supernatant was collected and stored at −80 °C for 24 h. Caspase 3 activity was measured as the ability of the cell extract to cleave the […] fluorochrome. The sample’s protein concentration was determined by the Bradford method. The reaction assay was performed by the addition of 50 μL of the cell lysate into the wells of a black 96-well culture plate followed by the addition of 50 μL of 2× reaction buffer containing DTT (10 mM) and caspase-3 substrate DEVD-AFC (final concentration 50 μM). Reagents were mixed by shaking the plate for 2 min at 300 rpm and then incubated at 37 °C for 2 h. Caspase-3 activity was measured as fluorescence intensity in a Varioskan microplate reader at λex = 400 nm and λem = 505 nm wavelengths. Relative fluorescence units (RFU)/mg of protein were calculated, and the fold increase in Caspase-3 activity was compared with that of the control.

[8] = tested on: SH-SY5Y cells; assay: Neuroprotection in the 6-OHD neurotoxicity-induced model, MTT; assay type: cell-based, human; conditions: 6-OHD 250 µM 48 h; compounds 24 h before
[9] = tested on: SH-SY5Y cells; assay: Neuroprotection against H2O2-induced oxidative stress, MTT; conditions: H2O2 250 µM 24 h; compounds 5-50 µM 24 h before; Figure 8
[10] = tested on: SH-SY5Y cells; assay: Lipid peroxidation (MDA, TBARS); assay type: cell-based, human; conditions: 250 µM H2O2 24 h; 10 and 20 µM 24 h before
Method: For MDA studies, 2 × 10^5 SH-SY5Y cells were seeded in 6-well culture plates. After 24 h, cells were treated with the test compound and incubated for another 24 h. After compound treatment, cells were exposed to H2O2 for 24 h. Then, the cells were washed twice with cold 50 mM PBS buffer, detached, and lysed with lysis buffer, and TBA was added to each sample tube and vortexed. The reaction mixture was incubated at 96 °C for 60 min. After incubation, samples were cooled and centrifuged 10 min at 10^4 rpm. Samples were dispensed in 96-well culture black clear bottom plates, and fluorescence was measured with a Varioskan microplate reader at λex = 540 nm and λem = 590 nm wavelengths. Protein concentration was measured by the Bradford protein assay. The levels of MDA were expressed as nmol/mg protein. Experiments were performed four times in triplicate.

[11] = Kinetic solubility by UV spectrometry; assay type: physicochemical; conditions: PBS 50 mM, aqueous buffer, kinetic from dmso stock
Method: A modified protocol was used from that described by Hoelke et al. for the determination of the kinetic solubility from DMSO compound solutions. A compound calibration curve (compound concentration vs UV absorption) was prepared for each compound with concentrations of 10, 20, 50, 100, and 200 µM. Each compound dilution was carried out by pipetting defined volumes of a 20 mM stock compound solution in DMSO into vials and adding PBS 50 mM to reach a final volume of 1 mL/well. The final amount of DMSO per well was 2%. For the lower compound concentrations, an additional volume of DMSO was added to each well to reach 2% DMSO. Then, 200 µL of each dilution was transferred to a new 96-well culture plate for the measurement of the UV-spectra. One well in each row was left without a compound as a blank, and its UV absorbance was used as an offset correction. The experiments were performed in duplicate.
In parallel, compound saturation solutions were reached and filtered from 20 mM compound stock in DMSO: 10 µL of a 20 mM stock solution was dispensed into 190 µL of PBS 10 mM. The solutions were mixed, shaken on a microplate shaker for two hours, and then 160 µL of each solution was filtered and transferred to a new well plate for UV absorption measurement.
Measurement of the UV-spectra was performed using a Varioskan microplate reader, and spectra were taken in the range of 270–600 nm. Spectral bandwidth was set to 5 nm, and the data pint interval was 10 nm. The experiments were carried out in triplicate.

[12] = tested on: diffSH-SY5Y cells; assay: Neuroprotection in differentiated SH-SY5Y cells, MTT; assay type: cell-based, human; conditions: H2O2 500 µM 24 h; 0, 2, 5, 10, 20, and 40 µM 24 h before
[13] = previously reported; cited from earlier work

concentration decrease in the presence of H2O2 [1]: 30%
solubility [11]: < 50 µM
Compound: COc1cc(/C=C/C(=O)CC(=O)/C=C/c2ccc(O)c(OC)c2)ccc1O [Curcumin, reference compound]
LDH leakage [2]: reduced LDH leakage to some degree
IC50 [3]: 48.8 ± 5.1 µM
IC50 [4]: 110 ± 9.8 µM
Reduction in mitochondrial superoxide levels [5]: only a clear reduction at 20 µM
Neuroprotection, cell viability (MTT), MPP+ model [6]: did not yield any protection
Caspase-3 activity reduction [7]: did not show any reduction in caspase-3 activity
Neuroprotection, cell viability (MTT), 6-OHD model [8]: did not show any protection
Neuroprotection effect, cell viability (MTT) [9]: only showed slight protection at concentrations 5 and 10 µM
Effect on MDA levels [10]: reduction of MDA levels although without statistical significance
Neuroprotection, diffSH-SY5Y cell viability (MTT) [12]: more irregular activity profile with some toxicity at 40 µM
water solubility [13]: < 0.6 µg/mL
